Assays:
Staphylococcus aureus = test: Antibacterial activity against Staphylococcus aureus after 24 hrs by serial broth dilution test; assay type: functional
Escherichia coli = test: Antibacterial activity against Escherichia coli IFO 026 after 24 hrs by serial broth dilution test; assay type: functional; conditions: IFO 026, 24 h
Candida albicans = test: Antifungal activity against Candida albicans IFO 1061 after 48 hrs by serial broth dilution test; assay type: functional; conditions: IFO 1061, 48 h
Bacillus subtilis = test: Antibacterial activity against Bacillus subtilis after 24 hrs by serial broth dilution test; assay type: functional
Salmonella enteritidis = test: Antibacterial activity against Salmonella enteritidis after 24 hrs by serial broth dilution test; assay type: functional, Salmonella enterica subsp. enterica serovar Enteritidis; conditions: Salmonella enterica

With `CCCCc1c2c(OC)c(OC)cc(Br)c2cc2[n+]1CCc1cc3c(cc1-2)OCO3.[Cl-]` the MIC (Staphylococcus aureus) was 7.8 µg/mL, the MIC (Escherichia coli) was 250 µg/mL and the MIC (Candida albicans) was 62.5 µg/mL. For the same compound, the MIC (Bacillus subtilis) was 7.8 µg/mL and the MIC (Salmonella enteritidis) was 15.6 µg/mL.

`CCCc1c2c(OC)c(OC)ccc2cc2[n+]1CCc1cc3c(cc1-2)OCO3.[Cl-]` gave an MIC (Staphylococcus aureus) of 31.2 µg/mL, an MIC (Escherichia coli) of 500 µg/mL and an MIC (Candida albicans) of 250 µg/mL. The MIC (Bacillus subtilis) was 62.5 µg/mL and the MIC (Salmonella enteritidis) was 31.2 µg/mL.

Compound `COc1ccc2cc3[n+](c(-c4ccccc4)c2c1OC)CCc1cc2c(cc1-3)OCO2.[Cl-]` has an MIC (Staphylococcus aureus) of 62.5 µg/mL, an MIC (Escherichia coli) greater than 500 µg/mL and an MIC (Candida albicans) of 250 µg/mL. For the same compound, the MIC (Bacillus subtilis) was 62.5 µg/mL and the MIC (Salmonella enteritidis) was 125 µg/mL.

In the case of `COc1cc(Br)c2cc3[n+](cc2c1OC)CCc1cc2c(cc1-3)OCO2.[Cl-]`, the MIC (Staphylococcus aureus) is reported as 125 µg/mL, the MIC (Escherichia coli) is reported as greater than 500 µg/mL and the MIC (Candida albicans) is reported as 500 µg/mL. For the same compound, the MIC (Bacillus subtilis) was 125 µg/mL and the MIC (Salmonella enteritidis) was 125 µg/mL.

In the case of `CCc1c2c(OC)c(OC)cc(Br)c2cc2[n+]1CCc1cc3c(cc1-2)OCO3.[Cl-]`, the MIC (Staphylococcus aureus) is reported as 31.2 µg/mL, the MIC (Escherichia coli) is reported as 500 µg/mL and the MIC (Candida albicans) is reported as 250 µg/mL. It also gave an MIC (Bacillus subtilis) of 31.2 µg/mL and an MIC (Salmonella enteritidis) of 31.2 µg/mL.

Compound `COc1ccc2cc3[n+](c(C)c2c1OC)CCc1cc2c(cc1-3)OCO2.[Cl-]` has an MIC (Staphylococcus aureus) of 125 µg/mL, an MIC (Escherichia coli) greater than 500 µg/mL and an MIC (Candida albicans) of 250 µg/mL. The MIC (Bacillus subtilis) was 250 µg/mL and the MIC (Salmonella enteritidis) was 125 µg/mL.

In the case of `CCc1c2c(OC)c(OC)ccc2cc2[n+]1CCc1cc3c(cc1-2)OCO3.[Cl-]`, the MIC (Staphylococcus aureus) is reported as 62.5 µg/mL, the MIC (Escherichia coli) is reported as greater than 500 µg/mL and the MIC (Candida albicans) is reported as 125 µg/mL. The MIC (Bacillus subtilis) was 125 µg/mL and the MIC (Salmonella enteritidis) was 62.5 µg/mL.

Work on `COc1cc(Br)c2cc3[n+](c(-c4ccccc4)c2c1OC)CCc1cc2c(cc1-3)OCO2.[Cl-]` yielded an MIC (Staphylococcus aureus) of 31.2 µg/mL, an MIC (Escherichia coli) of 500 µg/mL and an MIC (Candida albicans) of 250 µg/mL. It also gave an MIC (Bacillus subtilis) of 31.2 µg/mL and an MIC (Salmonella enteritidis) of 31.2 µg/mL.

With `CCCc1c2c(OC)c(OC)cc(Br)c2cc2[n+]1CCc1cc3c(cc1-2)OCO3.[Cl-]` the MIC (Staphylococcus aureus) was 15.6 µg/mL, the MIC (Escherichia coli) was 500 µg/mL and the MIC (Candida albicans) was 125 µg/mL. For the same compound, the MIC (Bacillus subtilis) was 15.6 µg/mL and the MIC (Salmonella enteritidis) was 15.6 µg/mL.

In the case of `COc1ccc2cc3[n+](cc2c1OC)CCc1cc2c(cc1-3)OCO2.[Cl-]` [BERBERINE CHLORIDE], the MIC (Staphylococcus aureus) is reported as 250 µg/mL, the MIC (Escherichia coli) is reported as greater than 2000 µg/mL and the MIC (Candida albicans) is reported as 500 µg/mL. The MIC (Bacillus subtilis) was 1000 µg/mL and the MIC (Salmonella enteritidis) was 500 µg/mL.

`CCCCc1c2c(OC)c(OC)ccc2cc2[n+]1CCc1cc3c(cc1-2)OCO3.[Cl-]` showed an MIC (Staphylococcus aureus) of 15.6 µg/mL, an MIC (Escherichia coli) of 500 µg/mL and an MIC (Candida albicans) of 250 µg/mL. The MIC (Bacillus subtilis) was 31.2 µg/mL and the MIC (Salmonella enteritidis) was 31.2 µg/mL.

`NC[C@H]1O[C@H](O[C@H]2[C@H](O)[C@@H](O[C@H]3O[C@H](CO)[C@@H](O)[C@H](N)[C@H]3O)[C@H](N)C[C@@H]2N)[C@H](O)[C@@H](O)[C@@H]1O.O=S(=O)(O)O` [KANAMYCIN SULFATE] was tested, and the MIC (Staphylococcus aureus) was 31.2 µg/mL, the MIC (Escherichia coli) was 31.2 µg/mL and the MIC (Candida albicans) was greater than 2000 µg/mL. For the same compound, the MIC (Bacillus subtilis) was 3.9 µg/mL and the MIC (Salmonella enteritidis) was 62.5 µg/mL.

With `CCCCCCc1c2c(OC)c(OC)cc(Br)c2cc2[n+]1CCc1cc3c(cc1-2)OCO3.[Cl-]` the MIC (Staphylococcus aureus) was 3.9 µg/mL, the MIC (Escherichia coli) was 125 µg/mL and the MIC (Candida albicans) was 15.6 µg/mL. For the same compound, the MIC (Bacillus subtilis) was 3.9 µg/mL and the MIC (Salmonella enteritidis) was 3.9 µg/mL.
